For the assay, the target named is OTU domain-containing protein 3 (Homo sapiens) (UniProt Q5T2D3). In words: Validation of screening hits, potency titration, in vitro enzymatic, OTU domain-containing protein 3 DUB inhibitors (AID 1645868). To be noted: purified OTUD3, ubiquitin-rhodamine cleavage fluorescence, 2 h.

The structures appear in SMILES notation. The source made the active and inactive calls.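 The calls were made as follows: active = maximal percent inhibition of the deubiquitinase OTUD3 of at least 30% across the tested doses; inactive = the rest.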 Some results are limits rather than exact numbers.

OTU domain-containing protein 3 (Homo sapiens), sequence (Q5T2D3 whole entry, looked up, the tested form may be a part): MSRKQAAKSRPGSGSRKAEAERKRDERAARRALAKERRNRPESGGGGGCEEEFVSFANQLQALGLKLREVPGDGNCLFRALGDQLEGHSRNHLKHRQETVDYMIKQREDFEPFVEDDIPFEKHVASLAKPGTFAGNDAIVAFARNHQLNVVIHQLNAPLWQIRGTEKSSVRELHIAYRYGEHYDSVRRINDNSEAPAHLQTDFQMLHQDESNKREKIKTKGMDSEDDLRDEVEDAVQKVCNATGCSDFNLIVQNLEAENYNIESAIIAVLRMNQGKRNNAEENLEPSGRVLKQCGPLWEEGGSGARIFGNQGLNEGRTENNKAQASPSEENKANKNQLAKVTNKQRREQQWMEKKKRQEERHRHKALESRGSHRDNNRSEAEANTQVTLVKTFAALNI

For orientation: IC50 means the concentration that gives 50% inhibition. In the case of `Cc1cc(=O)n(CC(=O)NCc2ccccc2F)c2c1c(C)nn2-c1ccccc1`, the IC50 is 28.6 µM. The value for `COc1cccc(/C=C/C(=O)Nc2ccc(N3CCOCC3)cc2)c1OC` was > 50 µM (inactive). The value for `CSc1ccccc1C(=O)Nc1sc2c(c1C(N)=O)CCC(C)C2` (stereo not drawn) was 22.1 µM; that for `COc1ccc(CC(=O)Nc2nc(-c3ccco3)c(-c3ccco3)s2)cc1` was > 50 µM (inactive).

Regarding `O=C(COc1nc2ccccc2nc1N1CCOCC1)NC(c1ccccc1)c1ccccc1`, the IC50 was > 50 µM (inactive).

As for `Cc1cc(Cl)c2c(c1)[C@]1(C(=O)N2)N2CCC[C@H]2[C@@H](C(=O)c2cc3ccccc3o2)[C@]12C(=O)Nc1ccccc12`, the IC50 was > 50 µM (inactive). The figure for `CCc1nc(SCC(=O)Nc2ccccc2Cl)c2oc3ccccc3c2n1` is 1.92 µM; for `Cc1cc(C(=O)NC2(O)C(=O)c3ccccc3C2=O)n(C)n1` it is 47.2 µM. The figure for `CC(OC(=O)c1ccc2c(c1)OCCO2)C(=O)NCC1CCCCC1` (stereo not drawn) is 34.2 µM; for `O=C(NCc1ccccc1)c1ccc(-c2ccc(N3CCCC3)nn2)cc1` it is > 50 µM (inactive). The figure for `O=[N+]([O-])c1cccc(CSc2nnc(/C=C/c3ccccc3)o2)c1` is > 50 µM (inactive); for `COc1ccc(NS(=O)(=O)c2cc(NC(=O)CCc3nc4ccccc4s3)ccc2C)cc1` it is 31.7 µM. In the case of `Cc1ccc2oc(=O)c(S(=O)(=O)N3CCCCC3)cc2c1`, the IC50 is 43.1 µM. Regarding `O=C(Nc1nnc(C2CC2)s1)c1ccc(OCC2CCCO2)cc1` (stereo not drawn), the IC50 was > 50 µM (inactive). The value for `O=C(/C=C/c1ccc(F)cc1)N1CCC(Cc2ccccc2)CC1` was 49.9 µM; that for `COc1ccc(CNc2nn3c(-c4cncc(OC)c4)cnc3s2)cc1` was > 50 µM (inactive). The value for `Nc1c(-c2nc(-c3ccc4c(c3)OCO4)cs2)nnn1-c1ccccc1` was > 50 µM (inactive); that for `Cc1c(C)n(-c2ccccc2)c2ncn(CC(=O)N(C)Cc3ccccc3)c(=O)c12` was > 50 µM (inactive); that for `O=C(COC(=O)c1ccc2ncsc2c1)Nc1ccccc1F` was > 50 µM (inactive). The value for `COc1ccc2cc3c(nc2c1)OC(=O)N(CCc1cccc(F)c1)C3` was > 50 µM (inactive). `Cc1cccc(NC(=O)Nc2nnc(CC(=O)NCc3ccccc3)s2)c1`: the IC50 is 23.9 µM. The value for `O=C1CC(NS(=O)(=O)c2ccc3ccccc3c2)CN1c1cccc(F)c1` (stereo not drawn) was > 50 µM (inactive); that for `COCCNC(=O)c1ccnn1-c1ccc2ccc(-c3cccnc3)cn12` was > 50 µM (inactive); that for `Cc1nc2cc(NC(=O)C3CN(C(=O)c4cnccn4)C3)ccc2s1` was > 50 µM (inactive). The figure for `O=C(Nc1cccc(C(F)(F)F)c1)c1cc2c(s1)-c1ccccc1OC2` is 15.2 µM; for `CN=C(N)NCCC/C=C/CCCC(C)CC(C)C1OC(=O)/C=C/C(C)C(O)CC(O)C(C)C(O)CCC(C)C(O)CC2(O)OC(CC(OC(=O)CC(=O)O)CC(O)CC(O)C(C)C(O)/C=C/C1C)CC(O)C2O` (stereo not drawn) it is > 50 µM (inactive). The value for `CCOC(=O)c1ccc(S(=O)(=O)N2CCC(C(=O)OC(C)C(=O)Nc3cccc([N+](=O)[O-])c3)CC2)cc1` (stereo not drawn) was 17.3 µM; that for `COc1ccc(NC(=O)C2CCN(c3cncnc3N(C)C)CC2)cc1OC` was > 50 µM (inactive). `Cc1cccc(NC(=O)Cn2c(-c3cnccn3)nc(C)c(C)c2=O)c1C`: the IC50 is > 50 µM (inactive). The value for `CCn1c(Cn2cccn2)nc2cc(NC(=O)c3ccc(F)cc3)ccc21` was > 50 µM (inactive); that for `CCc1nc(-c2cc(C(=O)N3CCOCC3)c3ccccn23)cs1` was > 50 µM (inactive); that for `CCn1cnc2c(-c3ccccc3)cn(CC(=O)NCc3ccc4c(c3)OCO4)c2c1=O` was > 50 µM (inactive).

Take `O=S1(=O)CCN(CC2CCCO2)c2c(Oc3ccccc3)nc(F)c(Cl)c21` (stereo not drawn): the IC50 was > 50 µM (inactive).

The values are drawn from PubChem BioAssay AID1645868 (Buhrlage Lab, Dana-Farber Cancer Institute and Novartis …, 2021).
